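GI50 marks 50% less growth. TGI: concentration producing complete growth inhibition.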
Legend:
Experiment in all cases: NCI tumour cell line growth inhibition, 384-well format
SN12C renal = test system: SN12C renal
SK-OV-3 ovarian = test system: SK-OV-3 ovarian
MDA-MB-435 melanoma = test system: MDA-MB-435 melanoma
NCI-H522 lung = test system: NCI-H522 lung
HCT-116 colon = test system: HCT-116 colon
SR leukemia = test system: SR leukemia
MDA-MB-231 breast = test system: MDA-MB-231 breast
SK-MEL-2 melanoma = test system: SK-MEL-2 melanoma
ACHN renal = test system: ACHN renal
RXF 393 renal = test system: RXF 393 renal
OVCAR-8 ovarian = test system: OVCAR-8 ovarian
HCT-15 colon = test system: HCT-15 colon
MCF7 breast = test system: MCF7 breast
HT29 colon = test system: HT29 colon
A498 renal = test system: A498 renal
UACC-257 melanoma = test system: UACC-257 melanoma
KM12 colon = test system: KM12 colon
A549 NSCLC = test system: A549 NSCLC
BT-549 breast = test system: BT-549 breast
HS 578T breast = test system: HS 578T breast
NCI-H460 NSCLC = test system: NCI-H460 NSCLC
HOP-92 NSCLC = test system: HOP-92 NSCLC
OVCAR-3 ovarian = test system: OVCAR-3 ovarian
UO-31 renal = test system: UO-31 renal
PC-3 prostate = test system: PC-3 prostate
COLO 205 colon = test system: COLO 205 colon
SNB-75 CNS = test system: SNB-75 CNS
SF-539 CNS = test system: SF-539 CNS
SF-295 CNS = test system: SF-295 CNS
SK-MEL-5 melanoma = test system: SK-MEL-5 melanoma
K-562 leukemia = test system: K-562 leukemia
T-47D breast = test system: T-47D breast
SNB-19 CNS = test system: SNB-19 CNS
UACC-62 melanoma = test system: UACC-62 melanoma
CAKI-1 renal = test system: CAKI-1 renal
MALME-3M melanoma = test system: MALME-3M melanoma
SW-620 colon = test system: SW-620 colon
U251 glioblastoma = test system: U251 glioblastoma
HOP-62 NSCLC = test system: HOP-62 NSCLC
M14 melanoma = test system: M14 melanoma
SK-MEL-28 melanoma = test system: SK-MEL-28 melanoma
HL-60(TB) leukemia = test system: HL-60(TB) leukemia
IGROV1 ovarian = test system: IGROV1 ovarian
786-0 renal = test system: 786-0 renal
TK-10 renal = test system: TK-10 renal
NCI-H23 lung = test system: NCI-H23 lung
OVCAR-5 ovarian = test system: OVCAR-5 ovarian
MDA-MB-468 breast = test system: MDA-MB-468 breast
SF-268 CNS = test system: SF-268 CNS
NCI-H226 lung = test system: NCI-H226 lung
DU-145 prostate = test system: DU-145 prostate
NCI-H322M lung = test system: NCI-H322M lung
EKVX NSCLC = test system: EKVX NSCLC

## Cc1ncnc2c1ccn2[C@@H]1C[C@H](Oc2cc(C(F)F)c(F)c3c2CNCC3)[C@@H](O)[C@H]1O
SN12C renal
  GI50: 49.9 µM
  TGI: > 100 µM
SK-OV-3 ovarian
  GI50: 41.9 µM
  TGI: > 100 µM
MDA-MB-435 melanoma
  GI50: 38.4 µM
  TGI: > 100 µM
NCI-H522 lung
  GI50: 33 µM
  TGI: > 100 µM
HCT-116 colon
  GI50: 15 µM
  TGI: 63.3 µM
SR leukemia
  TGI: 12.2 µM
MDA-MB-231 breast
  GI50: 39.2 µM
  TGI: > 100 µM
SK-MEL-2 melanoma
  GI50: 22.1 µM
  TGI: 50.1 µM
ACHN renal
  GI50: 39.6 µM
  TGI: > 100 µM
RXF 393 renal
  GI50: 3.75 µM
  TGI: 24.9 µM
OVCAR-8 ovarian
  GI50: 87.5 µM
  TGI: > 100 µM
HCT-15 colon
  GI50: 30.5 µM
  TGI: > 100 µM
MCF7 breast
  GI50: 6.49 µM
  TGI: > 100 µM
HT29 colon
  GI50: 14 µM
  TGI: > 100 µM
A498 renal
  GI50: 19.3 µM
  TGI: > 100 µM
UACC-257 melanoma
  GI50: 13.5 µM
  TGI: 27.6 µM
KM12 colon
  GI50: 0.0943 µM
  TGI: > 100 µM
A549 NSCLC
  GI50: 57.8 µM
  TGI: > 100 µM
BT-549 breast
  GI50: 24.7 µM
  TGI: > 100 µM
HS 578T breast
  GI50: 19.3 µM
  TGI: > 100 µM
NCI-H460 NSCLC
  GI50: 0.221 µM
  TGI: > 100 µM
HOP-92 NSCLC
  GI50: 28.1 µM
  TGI: > 100 µM
OVCAR-3 ovarian
  GI50: 17.7 µM
  TGI: > 100 µM
UO-31 renal
  GI50: 26.4 µM
  TGI: > 100 µM
PC-3 prostate
  GI50: 19.8 µM
  TGI: > 100 µM
COLO 205 colon
  GI50: 46.5 µM
  TGI: > 100 µM
SNB-75 CNS
  GI50: 20.8 µM
  TGI: 88.6 µM
SF-539 CNS
  GI50: 36.2 µM
  TGI: > 100 µM
SF-295 CNS
  GI50: 18.9 µM
  TGI: 59.8 µM
SK-MEL-5 melanoma
  GI50: 5.57 µM
  TGI: 20.6 µM
K-562 leukemia
  GI50: 11.1 µM
  TGI: 23.8 µM
T-47D breast
  GI50: 1.92 µM
  TGI: 37.6 µM
SNB-19 CNS
  GI50: > 100 µM
  TGI: > 100 µM
UACC-62 melanoma
  GI50: 12.5 µM
  TGI: 53.3 µM
CAKI-1 renal
  GI50: 19.1 µM
  TGI: > 100 µM
MALME-3M melanoma
  GI50: 15.5 µM
  TGI: 31.3 µM
SW-620 colon
  GI50: 33.3 µM
  TGI: > 100 µM
U251 glioblastoma
  GI50: 31.6 µM
  TGI: > 100 µM
HOP-62 NSCLC
  GI50: 28.2 µM
  TGI: > 100 µM
M14 melanoma
  GI50: 18.4 µM
  TGI: 38.4 µM
SK-MEL-28 melanoma
  GI50: 17.2 µM
  TGI: 42.3 µM
HL-60(TB) leukemia
  GI50: 17 µM
  TGI: 30.8 µM
IGROV1 ovarian
  GI50: 57.1 µM
  TGI: > 100 µM
786-0 renal
  GI50: 23.6 µM
  TGI: > 100 µM
TK-10 renal
  GI50: 25.5 µM
  TGI: > 100 µM
NCI-H23 lung
  GI50: 12.9 µM
  TGI: 52.1 µM
OVCAR-5 ovarian
  GI50: > 100 µM
  TGI: > 100 µM
MDA-MB-468 breast
  GI50: 6.74 µM
  TGI: 35.2 µM
SF-268 CNS
  GI50: 29 µM
  TGI: > 100 µM
NCI-H226 lung
  GI50: 25.7 µM
  TGI: > 100 µM
DU-145 prostate
  GI50: 82.9 µM
  TGI: > 100 µM
NCI-H322M lung
  GI50: 24.2 µM
  TGI: > 100 µM
EKVX NSCLC
  GI50: 12.8 µM
  TGI: 96 µM
